# According to the supplement of paper PMC10307832:
# Tests used:
# Test in all cases: relative viability (nuclei count vs DMSO), 5 days (fraction); higher = more cells survive
# [1] = compound: C1=CC=C2C(=C1)C=CC(=C2SSC3=C(C=CC4=CC=CC=C43)O)O [IPA-3] + NC(=O)Nc1cc(-c2cccc(F)c2)sc1C(=O)N[C@H]1CCCNC1 [AZD7762] (partner 0.2 µM)
# In short: (§1)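 Nuclei were stained with Hoechst during a one-step fixation (final 0.05% Triton X-100, 1% formaldehyde, 1 ug/ml Hoechst) carried out 5 days after dosing, then counted on 4× images. The cells, lung cancer lines in 1536-well plates, had been dosed by pin tool the day after seeding with one drug alone or a fixed anchor-drug dose plus five library-drug doses (not always all listed) in √10 steps. Relative viability is the nuclei count in treated wells divided by that in vehicle wells, and each value is the median of duplicate plates.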
# [2] = compound: C1=CC=C2C(=C1)C=CC(=C2SSC3=C(C=CC4=CC=CC=C43)O)O [IPA-3] + O=C(CCCCCCC(=O)Nc1ccccc1)NO [Vorinostat] (partner 1 µM)
# In short: as §1
# [3] = compound: C1=CC=C2C(=C1)C=CC(=C2SSC3=C(C=CC4=CC=CC=C43)O)O [IPA-3] + O=C(c1cc(Cc2n[nH]c(=O)c3ccccc23)ccc1F)N1CCN(C(=O)C2CC2)CC1 [Olaparib] (partner 8 µM)
# In short: as §1
# [4] = compound: Cc1ccc(-n2nc(C(C)(C)C)cc2NC(=O)Nc2ccc(OCCN3CCOCC3)c3ccccc23)cc1 [Doramapimod] + O=C(CCCCCCC(=O)Nc1ccccc1)NO [Vorinostat] (partner 1 µM)
# In short: as §1
Cell Line,relative viability ([1]; first compound 0.2 µM),relative viability ([1]; first compound 0.6325 µM),relative viability ([1]; first compound 2 µM),relative viability ([1]; first compound 6.325 µM),relative viability ([1]; first compound 20 µM),relative viability ([2]; first compound 0.2 µM),relative viability ([2]; first compound 0.6325 µM),relative viability ([2]; first compound 2 µM),relative viability ([2]; first compound 6.325 µM),relative viability ([2]; first compound 20 µM),relative viability ([3]; first compound 0.2 µM),relative viability ([3]; first compound 0.6325 µM),relative viability ([3]; first compound 2 µM),relative viability ([3]; first compound 6.325 µM),relative viability ([3]; first compound 20 µM),relative viability ([4]; first compound 0.02 µM),relative viability ([4]; first compound 0.06325 µM),relative viability ([4]; first compound 0.2 µM),relative viability ([4]; first compound 0.6325 µM),relative viability ([4]; first compound 2 µM)
NCI-H2126,1.05,0.974,1,0.958,1.05,0.822,0.784,0.746,0.753,0.892,1.05,0.886,0.877,0.875,1.06,0.792,0.765,0.763,0.671,0.671
H3255,1.03,0.919,0.865,0.912,1,1.05,0.759,0.801,0.791,0.967,0.605,0.555,0.565,0.518,0.562,0.864,0.884,0.818,–,0.84
HCC-15,1.48,1.29,1.18,1.18,1.37,0.929,0.937,0.894,0.804,0.975,0.842,0.699,0.694,0.741,0.728,0.859,0.901,0.834,0.971,0.807
HCC-44,0.963,0.998,1.02,1,0.907,1.03,1.03,1.04,1.07,0.986,0.961,0.983,1.03,1.02,1.02,1.17,1.18,1.14,1.14,1.2
NCI-H2342,0.429,0.563,0.502,0.681,0.542,0.837,1.03,0.851,0.91,0.89,0.468,0.4,0.559,0.46,0.473,0.761,0.747,0.806,0.849,0.829
ChaGo-K-1,0.986,0.908,0.859,0.952,0.946,0.968,0.699,0.757,0.864,0.875,0.458,0.421,0.413,0.441,0.392,0.778,0.769,0.689,0.596,0.64
EMC-BAC-2,1.15,1.17,1.12,1.08,1.16,0.436,0.556,0.504,0.428,0.491,0.5,0.468,0.447,0.459,0.412,0.49,0.867,0.78,0.256,0.433
LCLC-103H,0.862,0.814,0.744,0.788,0.872,0.849,0.807,0.805,0.865,0.867,0.765,0.693,0.78,0.681,0.789,0.788,0.799,0.875,0.845,0.751
